Measured values as given in patent US7709486B2, “CXCR4 antagonists” (Genzyme Corporation, priority 1998, dated 2010).

Tested on: collagen-induced arthritis (CIA)
Protocol: The experiments were performed in 8- to 12-week old mice, but in each experiment, the mutant and wild-type mice were age-matched with a 5 day limit. The male to female ratio was kept between 0.8 and 1.3 in each experimental group.
Native chicken collagen type II (EPC, Owensvillle, Mo.) was dissolved in 0.05 M acetic acid at 2 mg/ml by stirring overnight at 6° C., and emulsified in an equal volume of incomplete (IFA) or complete Freund's adjuvant (CFA) containing 1.5 mg/ml heat killed Mycobacterium butyricum (Difco, Detroit, Mich.). Mice were sensitized with a single 100 μl intradermal injection of the emulsion at the base of the tail. Mice were examined daily for signs of arthritis. The disease severity was recorded following a scoring system for each limb. Score 0: normal; score 1: redness and/or swelling in one joint; score 2: redness and/or swelling in more than one joint; score 3: redness and/or welling in the entire paw; score 4: deformity and/or ankylosis.
Spleens and fore and hind limbs were fixed in buffered saline—B5fixative (10% formalin with quicksilver). […] Limbs were subsequently decalcified overnight with formic acid. […] Severity of arthritis was evaluated using three parameters: infiltration of mono- and polymorphonuclear cells, hyperplasia of the synovium and parmus formation. Each parameter was scored on a scale from 0 to 3 (absent; weak, moderate and severe).

SMILES: c1cc(CN2CCCNCCNCCCNCC2)ccc1CN1CCCNCCNCCCNCC1 [AMD3100, 1,1′-[1,4-phenylenebis(methylene)]bis-1,4,8,11-tetraazacyclotetradecane]
- Body weight loss compared with control animals (collagen-injected mice, treated): did not demonstrate any significant body weight loss
- Time until the single affected treated animal developed arthritic pathology (post-treatment): > 20 days
